The structures appear in SMILES notation. Values joined by “and” are separate entries in the source; they are usually repeats but may differ in a detail not shown here. Identical values can stand only once. Inconclusive results and toxic doses are left out.

This experiment deals with CD2F1 mice, L1210 leukemia ip, survival T/C. Put plainly: NCI In Vivo Anticancer Drug Screen. Data for tumor model L1210 Leukemia (intraperitoneal) in CD2F1 (CDF1) mice. Conditions: endpoint: mean survival time, higher = longer survival. The procedure, abridged: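 Compound-dosed mice with transplantable tumor versus matched vehicle controls; endpoint ratio T/C reported.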

The mark [1] stands for this setting: dose: 8.0 mg/kg/injection, schedule: Q01DX001 (ip), vehicle: saline.
[2] abbreviates: dose: 100.0 mg/kg/injection, schedule: Q01DX001 (ip), vehicle: saline with Tween-80.
Setting [3] is: dose: 400.0 mg/kg/injection, schedule: Q01DX001 (ip), vehicle: saline with Tween-80.

`O=C1N[C@@H]([C@H]2CC[C@H](Cl)CN2)C(=O)N[C@H]1[C@H]1CC[C@H](Cl)CN1`: the T/C (dose: 0.25 mg/kg/injection, schedule: Q01DX009 (iv), vehicle: saline) is 100 % of control; the T/C (dose: 0.25 mg/kg/injection, schedule: Q03HX016 (ip), vehicle: saline) was 115 % of control; the T/C (dose: 0.5 mg/kg/injection, schedule: Q01DX009 (iv), vehicle: saline) is 112 % of control; the T/C (dose: 0.5 mg/kg/injection, schedule: Q01DX009 (oral), vehicle: saline) is 108 % of control; the T/C (dose: 0.5 mg/kg/injection, schedule: Q03HX016 (ip), vehicle: saline) is 151 % of control; the T/C (dose: 0.5 mg/kg/injection, schedule: Q03HX024 (ip), vehicle: saline) is 196 % of control. The T/C (dose: 1.0 mg/kg/injection, schedule: Q01DX001 (iv), vehicle: saline) is 108 % of control; the T/C (dose: 1.0 mg/kg/injection, schedule: Q01DX009 (ip), vehicle: saline) was 167 % of control; the T/C (dose: 1.0 mg/kg/injection, schedule: Q01DX009 (oral), vehicle: saline) was 160 % of control; the T/C (dose: 1.0 mg/kg/injection, schedule: Q03HX008 (ip), vehicle: saline) was 305 % of control; the T/C (dose: 1.0 mg/kg/injection, schedule: Q03HX016 (ip), vehicle: saline) was 252 % of control; the T/C (dose: 1.0 mg/kg/injection, schedule: Q03HX024 (ip), vehicle: saline) was 300 % of control. In addition, the T/C was 116 % of control (dose: 1.0 mg/kg/injection, schedule: Q04DX003 (oral), vehicle: saline); 120 % of control (dose: 1.0 mg/kg/injection, schedule: Q08DX002 (ip), vehicle: saline); 109 % of control (dose: 2.0 mg/kg/injection, schedule: Q01DX001 (iv), vehicle: saline); 111 % of control (dose: 2.0 mg/kg/injection, schedule: Q01DX001 (oral), vehicle: saline); 123 % of control (dose: 2.0 mg/kg/injection, schedule: Q01DX001 (sc), vehicle: saline); 223 % of control (dose: 2.0 mg/kg/injection, schedule: Q01DX009 (ip), vehicle: saline). Further, the T/C (dose: 2.0 mg/kg/injection, schedule: Q01DX009 (iv), vehicle: saline) was 160 % of control; the T/C (dose: 2.0 mg/kg/injection, schedule: Q01DX009 (oral), vehicle: saline) was 158 % of control; the T/C (dose: 2.0 mg/kg/injection, schedule: Q03HX008 (ip), vehicle: saline) is 354 % of control; the T/C (dose: 2.0 mg/kg/injection, schedule: Q03HX016 (ip), vehicle: saline) was 95 % of control; the T/C (dose: 2.0 mg/kg/injection, schedule: Q03HX024 (ip), vehicle: saline) was 93 % of control; the T/C (dose: 2.0 mg/kg/injection, schedule: Q04DX003 (ip), vehicle: saline) was 171 % of control. In addition, the T/C is 119 % of control (dose: 2.0 mg/kg/injection, schedule: Q04DX003 (oral), vehicle: saline); 117 % of control (dose: 2.0 mg/kg/injection, schedule: Q08DX002 (oral), vehicle: saline); 155 % of control (dose: 2.5 mg/kg/injection, schedule: Q01DX001 (ip), vehicle: water); 157 % of control (dose: 4.0 mg/kg/injection, schedule: Q01DX001 (ip), vehicle: saline); 124 % of control (dose: 4.0 mg/kg/injection, schedule: Q01DX001 (oral), vehicle: saline); 107 % of control (dose: 4.0 mg/kg/injection, schedule: Q01DX009 (ip), vehicle: saline). The T/C (dose: 4.0 mg/kg/injection, schedule: Q01DX009 (iv), vehicle: saline) is 157 % of control; the T/C (dose: 4.0 mg/kg/injection, schedule: Q01DX009 (oral), vehicle: saline) is 86 % of control; the T/C (dose: 4.0 mg/kg/injection, schedule: Q04DX003 (ip), vehicle: saline) is 188 % of control and 221 % of control; the T/C (dose: 4.0 mg/kg/injection, schedule: Q04DX003 (oral), vehicle: saline) was 156 % of control; the T/C (dose: 4.0 mg/kg/injection, schedule: Q08DX002 (ip), vehicle: saline) is 179 % of control; the T/C (dose: 5.0 mg/kg/injection, schedule: Q01DX001 (ip), vehicle: water) was 241 % of control and 269 % of control. In addition, the T/C is, setting by setting: (dose: 6.0 mg/kg/injection, schedule: Q01DX001 (ip), vehicle: saline) 261 % of control; (dose: 6.7 mg/kg/injection, schedule: Q01DX001 (ip), vehicle: saline) 188 % of control; under setting [1], 286 % of control and 501 % of control; (dose: 8.0 mg/kg/injection, schedule: Q01DX001 (iv), vehicle: saline) 157 % of control; (dose: 8.0 mg/kg/injection, schedule: Q01DX001 (oral), vehicle: saline) 154 % of control and 175 % of control; (dose: 8.0 mg/kg/injection, schedule: Q01DX001 (sc), vehicle: saline) 162 % of control. For the same molecule, the T/C by setting is: (dose: 8.0 mg/kg/injection, schedule: Q04DX003 (ip), vehicle: saline) 246 % of control; (dose: 8.0 mg/kg/injection, schedule: Q04DX003 (oral), vehicle: saline) 164 % of control; (dose: 8.0 mg/kg/injection, schedule: Q08DX002 (ip), vehicle: saline) 415 % of control; (dose: 8.0 mg/kg/injection, schedule: Q08DX002 (oral), vehicle: saline) 155 % of control; (dose: 10.0 mg/kg/injection, schedule: Q01DX001 (ip), vehicle: water) 296 % of control and 349 % of control; (dose: 16.0 mg/kg/injection, schedule: Q01DX001 (iv), vehicle: saline) 212 % of control. Further, the T/C runs as follows: (dose: 16.0 mg/kg/injection, schedule: Q01DX001 (oral), vehicle: saline) 100 % of control; (dose: 16.0 mg/kg/injection, schedule: Q01DX001 (sc), vehicle: saline) 94 % of control; (dose: 16.0 mg/kg/injection, schedule: Q04DX003 (ip), vehicle: saline) 94 % of control and 95 % of control; (dose: 16.0 mg/kg/injection, schedule: Q04DX003 (oral), vehicle: saline) 90 % of control; (dose: 16.0 mg/kg/injection, schedule: Q08DX002 (ip), vehicle: saline) 100 % of control; (dose: 16.0 mg/kg/injection, schedule: Q08DX002 (oral), vehicle: saline) 90 % of control.
With `C[C@]12CC[C@H](OC(=O)Cc3ccc(N(CCCl)CCCl)cc3)CC1=CC[C@@H]1[C@@H]2CC[C@]2(C)C(=O)CC[C@@H]12`, the T/C is 92 % of control under setting [2]; 100 % of control (dose: 100.0 mg/kg/injection, schedule: Q01DX009 (ip), vehicle: saline with Tween-80); 90 % of control (dose: 200.0 mg/kg/injection, schedule: Q01DX001 (ip), vehicle: saline with Tween-80); 107 % of control (dose: 200.0 mg/kg/injection, schedule: Q01DX009 (ip), vehicle: saline with Tween-80); 96 % of control under setting [3]; 111 % of control (dose: 400.0 mg/kg/injection, schedule: Q01DX009 (ip), vehicle: saline with Tween-80).
In the case of `CCC(=O)c1cc(OC)cc(OC)c1`, the T/C (dose: 100.0 mg/kg/injection, schedule: Q04DX003 (ip), vehicle: saline) was 100 % of control; the T/C (dose: 200.0 mg/kg/injection, schedule: Q04DX003 (ip), vehicle: saline) was 101 % of control; the T/C (dose: 400.0 mg/kg/injection, schedule: Q04DX003 (ip), vehicle: saline) was 103 % of control.
Regarding `CCOc1ccc(OCC)c(NC(=O)Nc2ccccc2OC)c1`, the T/C was 96 % of control (dose: 100.0 mg/kg/injection, schedule: Q04DX002 (ip), vehicle: saline with Tween-80); 96 % of control (dose: 200.0 mg/kg/injection, schedule: Q04DX002 (ip), vehicle: saline with Tween-80); 96 % of control (dose: 400.0 mg/kg/injection, schedule: Q04DX002 (ip), vehicle: saline with Tween-80).
On to `O=C1C2C(C(=O)N1c1ccc(OCc3ccccc3)cc1)C1c3ccccc3C2C2CCCCN21` (stereo unspecified), for which the T/C reads like this: (dose: 25.0 mg/kg/injection, schedule: Q01DX009 (ip), vehicle: water) 100 % of control; (dose: 50.0 mg/kg/injection, schedule: Q01DX009 (ip), vehicle: water) 86 % of control.
On to `N#Cc1ccccc1NN=NCc1ccccc1`, for which the T/C is 97 % of control under setting [2] and 90 % of control under setting [3].
For `CN(C)C(=O)Nc1cccc(OS(=O)(=O)N(C)C)c1`, the T/C by setting is: (dose: 100.0 mg/kg/injection, schedule: Q04DX003 (ip), vehicle: saline with Tween-80) 99 % of control; (dose: 200.0 mg/kg/injection, schedule: Q04DX003 (ip), vehicle: saline with Tween-80) 96 % of control.
`CC(N)CCCO` (stereo unspecified): the T/C by setting is: (dose: 200.0 mg/kg/injection, schedule: Q01DX001 (ip), vehicle: saline) 109 % of control; (dose: 400.0 mg/kg/injection, schedule: Q01DX001 (ip), vehicle: saline) 94 % of control.
Regarding `c1ccc2c[n+](CCCCCCCCCC[n+]3ccc4ccccc4c3)ccc2c1`, the T/C by setting is: under setting [1], 88 % of control; (dose: 32.0 mg/kg/injection, schedule: Q01DX001 (ip), vehicle: saline) 88 % of control.

The values are drawn from PubChem BioAssay AID256 (DTP/NCI, 2004).
